Laboratory results reported in publication PMC2677997 (Bioorganic & medicinal chemistry, 2009).

Biological target: BoNT/A LC (BoNTA-LC 1-425) (Clostridium botulinum, UniProt P0DPI0)
Format: biochemical

BoNT/A LC (BoNTA-LC 1-425), sequence (P0DPI0 1-425 limits assumed): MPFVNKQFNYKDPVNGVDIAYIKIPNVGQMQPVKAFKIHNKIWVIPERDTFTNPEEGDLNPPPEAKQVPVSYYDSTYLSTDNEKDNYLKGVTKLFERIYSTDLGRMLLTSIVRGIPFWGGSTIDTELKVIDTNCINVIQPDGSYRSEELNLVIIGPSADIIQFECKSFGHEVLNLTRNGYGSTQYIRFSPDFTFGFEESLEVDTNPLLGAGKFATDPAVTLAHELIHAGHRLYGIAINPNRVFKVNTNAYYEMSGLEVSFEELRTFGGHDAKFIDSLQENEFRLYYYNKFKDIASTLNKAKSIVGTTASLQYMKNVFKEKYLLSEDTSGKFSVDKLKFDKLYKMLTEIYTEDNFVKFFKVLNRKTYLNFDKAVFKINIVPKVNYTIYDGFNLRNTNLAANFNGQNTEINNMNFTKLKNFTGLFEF

SMILES	inhibitory activity
O=C(CO)Nc1cc(-c2ccc(Cl)cc2)n[nH]1 [Compound 6, N-(3-(4-Chlorophenyl)-1H-pyrazol-5-yl)-2-hydroxyacetamide]	abolishes all activity
CC(=O)Nc1cc(-c2ccc(Cl)cc2)n[nH]1 [Compound 7, N-(3-(4-Chlorophenyl)-1H-pyrazol-5-yl)acetamide]	abolishes all activity
